Data from PubChem BioAssay (NCI).
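Test compounds were applied to cells in 96-well plates for 48 hours at 5 doses. GI50 = concentration required for 50% inhibition of growth. TGI: total growth inhibition.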

Legend:
Test in all cases: DTP human tumour cell line panel, 48 h
PC-3 prostate = system: PC-3 prostate
MALME-3M melanoma = system: MALME-3M melanoma
OVCAR-8 ovarian = system: OVCAR-8 ovarian
UACC-62 melanoma = system: UACC-62 melanoma
SW-620 colon = system: SW-620 colon
LOX IMVI melanoma = system: LOX IMVI melanoma
K-562 leukemia = system: K-562 leukemia
HCC-2998 colon = system: HCC-2998 colon
786-0 renal = system: 786-0 renal
SF-295 CNS = system: SF-295 CNS

| Structure (SMILES) | GI50 (PC-3 prostate) | TGI (PC-3 prostate) | GI50 (MALME-3M melanoma) | TGI (MALME-3M melanoma) | GI50 (OVCAR-8 ovarian) | TGI (OVCAR-8 ovarian) | GI50 (UACC-62 melanoma) | TGI (UACC-62 melanoma) | GI50 (SW-620 colon) | TGI (SW-620 colon) | GI50 (LOX IMVI melanoma) | TGI (LOX IMVI melanoma) | GI50 (K-562 leukemia) | TGI (K-562 leukemia) | GI50 (HCC-2998 colon) | TGI (HCC-2998 colon) | GI50 (786-0 renal) | TGI (786-0 renal) | GI50 (SF-295 CNS) | TGI (SF-295 CNS) |
| --- | --- | --- | --- | --- | --- | --- | --- | --- | --- | --- | --- | --- | --- | --- | --- | --- | --- | --- | --- | --- |
| Fc1cccc(-c2nc(-c3c[nH]c4ncccc34)cs2)c1 | > 100000 nM | > 100 µM | 5620 nM | > 100 µM | 42.4 µM | > 100 µM | > 100000 nM | > 100 µM | > 100000 nM | > 100 µM | > 100000 nM | > 100 µM | > 100000 nM | > 100 µM | > 100000 nM | > 100 µM | > 100000 nM | > 100 µM | 36800 nM | > 100 µM |
| O=C(O)c1ccccc1C(=O)Nc1cc2c(cc1Br)-c1ccccc1C2=O | – | > 100 µM | – | > 100 µM | – | > 100 µM | – | > 100 µM | – | > 100 µM | – | > 100 µM | – | > 100 µM | – | 58 µM | – | > 100 µM | – | – |
| COc1ccc2c3c1OC1C4(CCC5C(C2)N(CC2CC2)CCC351)OCCO4 (stereo unspecified) | – | > 100 µM | – | > 100 µM | – | > 100 µM | – | > 100 µM | – | > 100 µM | – | > 100 µM | – | > 100 µM | – | > 100 µM | – | > 100 µM | – | > 100 µM |
| CC(=O)OCCC/C(=C/c1cc2ccccc2c2ccccc12)[N+](=O)[O-] | 1890 nM | 3.94 µM | 1550 nM | 3.38 µM | 1.61 µM | 3.21 µM | 1540 nM | 3.1 µM | 1490 nM | 2.81 µM | 423 nM | 1.08 µM | 1700 nM | 6.87 µM | 1640 nM | 3 µM | 1680 nM | 3.05 µM | 977 nM | 2.32 µM |
| COc1ccc(/C=N/C2=NNC(C)(c3ccccc3O)N2C(Cc2c[nH]c3ccccc23)C(=O)O)cc1 (stereo unspecified) | 2680 nM | 11.6 µM | 1900 nM | 6.49 µM | 3.23 µM | 16 µM | 1860 nM | 5.53 µM | 3170 nM | 12.1 µM | 2680 nM | 10.1 µM | 2380 nM | 11.6 µM | 3530 nM | 13.3 µM | 3360 nM | 13 µM | 2120 nM | 7.35 µM |
| CCN(CC)CCOc1ccccc1-n1c(C)ccc1-c1ccccc1 | 12400 nM | 29.2 µM | 19200 nM | 36.6 µM | 16.7 µM | 33.4 µM | 15800 nM | 30.6 µM | 15200 nM | 31.8 µM | 17500 nM | 34.5 µM | 10700 nM | 32 µM | 13900 nM | 28.5 µM | 17100 nM | 31.8 µM | 16300 nM | 34.2 µM |
| NCCNc1nc2ccc(F)cc2c2c(=O)c3cc(F)ccc3sc12 | 1480 nM | 2.85 µM | 1910 nM | 4.28 µM | 2.06 µM | 4.6 µM | 1660 nM | 3.06 µM | 1560 nM | 3.09 µM | 1720 nM | 3.13 µM | 2140 nM | 5.41 µM | 1770 nM | 3.44 µM | 1590 nM | 2.96 µM | 1880 nM | 3.59 µM |
| COC(=O)C(Br)(C(=O)OC)C(Br)C(Br)C(Br)c1ccccc1 (stereo unspecified) | 4580 nM | 17.3 µM | 2090 nM | 4.46 µM | 3.03 µM | 8.15 µM | 2280 nM | 6.56 µM | 1640 nM | 3.07 µM | 1850 nM | 3.66 µM | 2950 nM | 9.93 µM | 17500 nM | 32 µM | 2720 nM | 6.7 µM | 17000 nM | 33.3 µM |
| CCN1C(=O)N[C@H]2[C@@H]3NC(=O)c4ccc(Cl)n4[C@@H]3C[C@]21O | 1680 nM | 11.2 µM | 653 nM | 4.66 µM | 0.533 µM | 9.01 µM | – | – | 511 nM | > 100 µM | 279 nM | 1.3 µM | 363 nM | 5.09 µM | 607 nM | 4.79 µM | 902 nM | 9.06 µM | 1000 nM | 4.93 µM |
| COc1ncc(-c2ccc3ncnc(Nc4cccc(Cl)c4)c3c2)cc1NS(C)(=O)=O | 2020 nM | 16.6 µM | – | – | 3.75 µM | > 100 µM | 1790 nM | 12.2 µM | 3220 nM | 17.7 µM | 1680 nM | 11.1 µM | 4510 nM | 85.3 µM | 1820 nM | 14.8 µM | 2720 nM | 24.9 µM | 1710 nM | 10.8 µM |
| Nc1ncc(-c2ccc3ncnc(N4CCc5cc(F)c(Cl)cc54)c3c2)cc1C(F)(F)F | 1440 nM | > 100 µM | 1440 nM | > 100 µM | 2.34 µM | > 100 µM | – | – | 1950 nM | > 100 µM | – | – | 1610 nM | > 100 µM | 2130 nM | > 100 µM | 1040 nM | 4.79 µM | 2030 nM | > 100 µM |
| N#Cc1cc2c(=S)[nH]c(=S)[nH]c2nc1SCc1ccccc1 | 23600 nM | > 100 µM | – | – | 58.1 µM | > 100 µM | 17000 nM | 54.6 µM | 48900 nM | > 100 µM | 17300 nM | 43.4 µM | 36900 nM | > 100 µM | 24600 nM | 79 µM | 28100 nM | > 100 µM | 46800 nM | > 100 µM |
| CCOc1cc(CCNC)c2c(ccc3ccc(OC)c(O)c32)c1OC | – | 27.6 µM | – | 20 µM | – | 29.4 µM | – | 31.1 µM | – | – | – | 24.2 µM | – | > 100 µM | – | 30 µM | – | 32.1 µM | – | 30.1 µM |
| COc1ccc2cn3c4ccc(O)cc4[nH]c(=O)c3c2c1 | 131 nM | 16.9 µM | – | – | 0.302 µM | 18.1 µM | 580 nM | 18.1 µM | 47 nM | 13.7 µM | 101 nM | 4.93 µM | 51.6 nM | 4.48 µM | 301 nM | 6.75 µM | 278 nM | 13.4 µM | 129 nM | 12.9 µM |
